Data as given in patent US20250114362A1, “METHODS AND COMPOSITIONS FOR TREATMENT OF CUTANEOUS PROLIFERATIVE DISORDERS AND OTHER SKIN CONDITIONS” (ASYMMETRIC THERAPEUTICS, LLC, priority 2022, published 2025).
Where “and” joins values, the source holds several entries; their conditions need not be identical. Identical values can stand only once.

Legend:
[1] = system: TGF-β; test: MatTek PSE culture system, TGF-β mRNA by qPCR; type: cell-based, human; details: after two days of treatment
Procedure: (§1) Other markers of cell proliferation were also measured, namely (protein p21), and four markers of inflammatory signaling (IL17A, IL23A, TNF-α, and transforming growth factor beta (TGF-β)) in the MatTek PSE culture system after two days of treatment were also determined. Ki67 is a nuclear protein and a replication marker. The marker levels were determined by isolating total RNA by a Promega SV96 Total RNA Isolation Vacuum System (Promega, Madison, WI) according to the manufacturer's instructions. The total RNA was reverse transcribed using an ABI High Capacity cDNA reverse transcription kit (Applied Biosystems, Foster City, CA). Quantitative real-time polymerase chain reaction (qPCR) was performed with the use of a SYBR Green PCR Master Mix (Applied Biosystems) according to the manufacturer's protocol and amplified on a StepOnePlus Real-Time PCR System.

[2] = system: HaCaT cells; test: M5 cocktail psoriasis-like HaCaT keratinocyte model, live and dead cell numbers by MultiTox-Glo Multiplex Cytotoxicity Assay; details: for Cell Counts, 0 hours, Dead / Cell Counts, 0 hours, Live / Cell Ratios, 0 hours, Dead / Cell Ratios, 0 hours, Total: 0 hours (baseline); for Cell Counts, 0 hours, Dead / Cell Counts, 0 hours, Live / Cell Counts, 48 hours, Dead / Cell Counts, 48 hours, Total / Cell Counts, 72 hours, Dead / Cell Counts, 72 hours, Total: M5 cocktail, ± standard deviation; for Cell Ratios, 0 hours, Dead / Cell Ratios, 0 hours, Total / Cell Ratios, 48 hours, Dead / Cell Ratios, 48 hours, Total / Cell Ratios, 72 hours, Dead / Cell Ratios, 72 hours, Total: relative to 9177 live cells at zero hours
Procedure: Immortalized human keratinocytes (HaCaT cells) purchased from AddexBio (San Diego, CA) were maintained in vitro in Dulbecco's modified Eagle's medium (DMEM) supplemented with 10% Fetal Bovine Serum (FBS) and antibiotics (100 U/mL penicillin and […] streptomycin) and cultured in an incubator with 5% CO2 at 37° C.
HaCaT cells were seeded at approximately 50% density (1×10^4 cells/well) and after 16 h the medium was replaced with 50 μL of pre-treatment medium containing different concentrations of allopurinol (0, 0.5, or 3 mM) or methotrexate (1 μM) and placed back into the incubator. Treatment media was prepared using standard media containing vehicle control (PBS) or M5 cocktail.
Other HaCaT cells were incubated in vitro for 72 hours in the presence of a M5 composition that also included 1.0 μM methotrexate, 0.5 mM allopurinol, 3.0 mM allopurinol, 0.5 mM oxypurinol, or 3.0 mM oxypurinol.
The number of live and dead cells were determined by the MultiTox-Glo Multiplex Cytotoxicity Assay (Promega, Madison WI) according to the manufacturer's protocol. A dilution series of cells was used to generate a standard curve for calculation of cell number in each well. The total number of cells was the sum of the live and dead cells.

[3] = system: IL23A; test: MatTek PSE culture system, IL23A mRNA by qPCR; type: cell-based, human; details: after two days of treatment
Procedure: as §1

[4] = system: Ki67; test: MatTek PSE culture system, Ki67 level by PCR; type: cell-based, human; details: for Relative Ki67 Level: Day 6, normalized to control at Day 0 = 1.0; for Relative Expression Levels, Ki67: after two days of treatment
Procedure: The level of Ki67 in the MatTek tissue culture system was also determined. Ki67 is a nuclear protein and a replication marker. The level of Ki67 was determined by polymerase chain reaction (PCR) analysis with standard protocols. The relative levels are normalized with respect to the measured Ki67 level of the control at Day 0, which is adjusted to 1.0.
as §1

[5] = system: p21/Ki67; test: MatTek PSE culture system, ratio of p21 to Ki67 mRNA levels; type: cell-based, human; details: after two days of treatment; treatment compositions of Table 5
Procedure: Ki67 is a replication marker for cells and the lower the value, the lower the replication rate. P21 is a protein which is a marker for the inhibition of cell proliferation. Thus, an increased ratio of P21/Ki67 indicates decreased cell replication. FIG. 9 illustrates this ratio under several conditions as described in Example 2.
as §1
To highlight effects on cell proliferation, the ratio of p21 to Ki67 mRNA levels were calculated, with the results being shown in FIG. 9.

[6] = system: TNF-α; test: MatTek PSE culture system, TNF-α mRNA by qPCR; type: cell-based, human; details: after two days of treatment
Procedure: as §1

[7] = system: p21; test: MatTek PSE culture system, p21 mRNA by qPCR; type: cell-based, human; details: after two days of treatment
Procedure: as §1

[8] = system: psoriasis; details: oral administration; double-blind cross-over study, Feuerman et al. 1973; cited from earlier work
[9] = system: hand-foot syndrome; details: topical; prevention of hand-foot syndrome; trial by Rodemer; cited from earlier work
[10] = system: MatTek human PSE culture system (SOR-300-FT); test: MatTek human PSE culture system, tissue layer thickness and histology
Text: The thickness of each of the three tissue layers of skin was monitored and measured after two days and after six days of exposure to the treatment medium in a blinded fashion by a board-certified and nationally respected pathologist.

[11] = system: IL17A; test: MatTek PSE culture system, IL17A mRNA by qPCR; type: cell-based, human; details: after two days of treatment
Procedure: as §1

[12] = system: psoriasis; details: Viglioglia et al. 1970; cited from earlier work

Oc1ncnc2[nH]ncc12 [allopurinol]
Relative Expression Levels, TGF-β ([1]; 0.5 mM): 0.90 ± 0.09
Relative Expression Levels, TGF-β ([1]; 3 mM): 0.60 ± 0.12
Cell Counts, 0 hours, Dead ([2]; 0.5 mM): 801 ± 19
Cell Counts, 0 hours, Live ([2]; 0.5 mM): 9177 ± 90
Cell Ratios, 0 hours, Dead ([2]; 0.5 mM): 0.087
Cell Ratios, 0 hours, Total ([2]; 0.5 mM): 1.087
Cell Counts, 48 hours, Dead ([2]; 0.5 mM): 2319 ± 141
Cell Counts, 48 hours, Total ([2]; 0.5 mM): 11705 ± 161
Cell Ratios, 48 hours, Dead ([2]; 0.5 mM): 0.253
Cell Ratios, 48 hours, Total ([2]; 0.5 mM): 1.275
Cell Counts, 72 hours, Dead ([2]; 0.5 mM): 4024 ± 166
Cell Counts, 72 hours, Total ([2]; 0.5 mM): 13428 ± 216
Cell Ratios, 72 hours, Dead ([2]; 0.5 mM): 0.44 and 0.438
Cell Ratios, 72 hours, Total ([2]; 0.5 mM): 1.46 and 1.463
Cell Counts, 0 hours, Dead ([2]; 3.0 mM): 801 ± 19
Cell Counts, 0 hours, Live ([2]; 3.0 mM): 9177 ± 90
Cell Ratios, 0 hours, Dead ([2]; 3.0 mM): 0.087
Cell Ratios, 0 hours, Total ([2]; 3.0 mM): 1.087
Cell Counts, 48 hours, Dead ([2]; 3.0 mM): 1275 ± 117
Cell Counts, 48 hours, Total ([2]; 3.0 mM): 9038 ± 176
Cell Ratios, 48 hours, Dead ([2]; 3.0 mM): 0.139
Cell Ratios, 48 hours, Total ([2]; 3.0 mM): 0.985
Cell Counts, 72 hours, Dead ([2]; 3.0 mM): 2004 ± 168
Cell Counts, 72 hours, Total ([2]; 3.0 mM): 9367 ± 280
Cell Ratios, 72 hours, Dead ([2]; 3.0 mM): 0.22 and 0.218
Cell Ratios, 72 hours, Total ([2]; 3.0 mM): 1.02 and 1.021
Relative Expression Levels, IL23A ([3]; 0.5 mM): 0.95 ± 0.20
Relative Expression Levels, IL23A ([3]; 3 mM): 0.66 ± 0.17
Relative Ki67 Level ([4]; 0.5 mM): 3.18
Relative Expression Levels, Ki67 ([4]; 0.5 mM): 0.27 ± 0.01
Relative Ki67 Level ([4]; 3 mM): 0.96
Relative Expression Levels, Ki67 ([4]; 3 mM): 0.42 ± 0.09
p21/Ki67 ratio (mRNA levels) [5]: markedly increased
Relative Expression Levels, TNF-α ([6]; 0.5 mM): 0.75 ± 0.13
Relative Expression Levels, TNF-α ([6]; 3 mM): 0.82 ± 0.19
Relative Expression Levels, p21 ([7]; 0.5 mM): 1.27 ± 0.10
Relative Expression Levels, p21 ([7]; 3 mM): 1.40 ± 0.17
improvement in psoriasis versus placebo [8]: no improvement over a placebo
clinical efficacy endpoint [9]: did not meet its clinical efficacy endpoint
Layer Thickness, Dermis ([10]; 0.5 mM, 2 days): 0.4 mm
Layer Thickness, Epidermis ([10]; 0.5 mM, 2 days): 0.1 mm
Layer Thickness, Stratum Corneum ([10]; 0.5 mM, 2 days): 0.05 mm
Layer Thickness, Dermis ([10]; 0.5 mM, 6 days): 0.25 mm
Layer Thickness, Epidermis ([10]; 0.5 mM, 6 days): 0.1 mm
Layer Thickness, Stratum Corneum ([10]; 0.5 mM, 6 days): 0.05 mm
increase in dermis layer thickness from treatment for 2 days to 6 days ([10]; 3.0 mM allopurinol alone): 1.4 fold
Layer Thickness, Dermis ([10]; 3 mM, 2 days): 0.25 mm
Layer Thickness, Epidermis ([10]; 3 mM, 2 days): 0.1 mm
Layer Thickness, Stratum Corneum ([10]; 3 mM, 2 days): 0.02 mm
Layer Thickness, Dermis ([10]; 3 mM, 6 days): 0.35 mm
Layer Thickness, Epidermis ([10]; 3 mM, 6 days): 0.15 mm
Layer Thickness, Stratum Corneum ([10]; 3 mM, 6 days): 0.1 mm
Relative Expression Levels, IL17A ([11]; 0.5 mM): 0.21 ± 0.07
Relative Expression Levels, IL17A ([11]; 3 mM): 0.09 ± 0.04
cases with excellent results [12]: 50%
cases with good results [12]: 34%
cases with moderate results [12]: 16%

N[C@@H](CCC(=O)N[C@@H](CS)C(=O)NCC(=O)O)C(=O)O [glutathione]
Relative Expression Levels, TGF-β ([1]; 3 mM): 0.77 ± 0.10
Relative Expression Levels, IL23A ([3]; 3 mM): 0.79 ± 0.14
Relative Expression Levels, Ki67 ([4]; 3 mM): 0.27 ± 0.01
p21/Ki67 ratio (mRNA levels) [5]: markedly increased
Relative Expression Levels, TNF-α ([6]; 3 mM): 0.29 ± 0.07
Relative Expression Levels, p21 ([7]; 3 mM): 1.35 ± 0.06
Layer Thickness, Dermis ([10]; 3 mM, 2 days): 0.3 mm
Layer Thickness, Epidermis ([10]; 3 mM, 2 days): 0.2 mm
Layer Thickness, Stratum Corneum ([10]; 3 mM, 2 days): 0.15 mm
Relative Expression Levels, IL17A ([11]; 3 mM): 0.04 ± 0.02
